The text below walks through data of US11066425B1, “Oxo-substituted compound” (SUMITOMO DAINIPPON PHARMA CO., LTD., priority 2018, dated 2021).

The subject of this assay is β-lactamase producing bacteria. The assay is described as follows: Test Example 1: MIC of meropenem (MEPM) combined with test compound at fixed 4 μg/mL, broth microdilution. As to conditions: relative to MEPM alone. The class given is cell-based. The procedure:
Test Example 1: Evaluation of Minimum Inhibitory Concentration (MIC) of MEPM Against β-Lactamase Producing Bacteria
To evaluate the β-lactamase inhibitory activity of test compounds, the effect of combination of a test compound and a β-lactam agent against β-lactamase producing bacteria was evaluated. Meropenem (MEPM) was used as a β-lactam antimicrobial agent. The minimum inhibitory concentration (MIC) of MEPM against β-lactamase producing bacteria when a test compound was added at a fixed concentration (4 μg/mL) was measured by broth microdilution method (common ratio: 2). MIC of MEPM decreasing to less than 1/32 in combination with a test compound is indicated by A, decreasing from 1/32 to 1/16 is indicated by B, decreasing from ⅛ to ¼ is indicated by C, and decreasing to ½ or others are indicated by D. “-” represents untested cases.

The structures appear in SMILES notation. Structures can show the parent of a compound that is named as a salt.

`CC(=O)N1CC(Oc2ccc3c(c2C(=O)O)OB(O)CC3)C1` [Example 1, 7-[(1-acetylazetidin-3-yl)oxy]-2-hydroxy-3,4-dihydro-2H-1,2-benzoxaborinine-8-carboxylic Acid]: the “Decrease of MIC of MEPM in combination with a test compound, E. coli ATCC BAA-2340 (KPC)” value (“Decrease of MIC … E. coli ATCC BAA-2340 (KPC)” for short) is “A (MIC of MEPM decreasing to less than 1/32 in combination with a test compound is indicated by A)”; the “Decrease of MIC of MEPM in combination with a test compound, K. pneumoniae ATCC BAA-2344 (KPC)” value (“Decrease … K. pneumoniae ATCC BAA-2344 (KPC)” below) is reported as “A (MIC of MEPM decreasing to less than 1/32 in combination with a test compound is indicated by A)”; the “Decrease of MIC of MEPM in combination with a test compound, K. pneumoniae ATCC BAA-2524 (OXA-48)” value (from here on “Decrease of MIC of MEPM … (OXA-48)”) is recorded as “B (decreasing from 1/32 to 1/16 is indicated by B)”.

With `O=C(O)c1c(OC2CN(C(=O)Cc3cnc[nH]3)C2)ccc2c1OB(O)CC2` [Example 2, 2-hydroxy-7-({1-[(1H-imidazol-5-yl)acetyl]azetidin-3-yl}oxy)-3,4-dihydro-2H-1,2-benzoxaborinine-8-carboxylic Acid Hydrochloride], the “Decrease of MIC … E. coli ATCC BAA-2340 (KPC)” value is listed as “A (MIC of MEPM decreasing to less than 1/32 in combination with a test compound is indicated by A)”; the “Decrease … K. pneumoniae ATCC BAA-2344 (KPC)” value was “A (MIC of MEPM decreasing to less than 1/32 in combination with a test compound is indicated by A)”; the “Decrease of MIC of MEPM … (OXA-48)” value is “B (decreasing from 1/32 to 1/16 is indicated by B)”.

As to `CS(=O)(=O)N1CC(Oc2ccc3c(c2C(=O)O)OB(O)CC3)C1` [Example 3, 2-hydroxy-7-{[1-(methanesulfonyl)azetidin-3-yl]oxy}-3,4-dihydro-2H-1,2-benzoxaborinine-8-carboxylic], the “Decrease of MIC … E. coli ATCC BAA-2340 (KPC)” value is reported as “A (MIC of MEPM decreasing to less than 1/32 in combination with a test compound is indicated by A)”; the “Decrease … K. pneumoniae ATCC BAA-2344 (KPC)” value is given as “A (MIC of MEPM decreasing to less than 1/32 in combination with a test compound is indicated by A)”; the “Decrease of MIC of MEPM … (OXA-48)” value is recorded as “B (decreasing from 1/32 to 1/16 is indicated by B)”.

For the molecule `N[C@@H](C(=O)N1CC(Oc2ccc3c(c2C(=O)O)O[B-](O)(O)CC3)C1)c1ccc(O)cc1` [Example 4, 8-({1-[(2R)-2-amino-2-(4-hydroxyphenyl)acetyl]azetidin-3-yl}oxy)-4,4-dihydroxy-5-oxa-4-boranuidabicyclo[4.4.0]deca-l(6),7,9-triene-7-carboxylic Acid Disodium Salt], the “Decrease of MIC … E. coli ATCC BAA-2340 (KPC)” value was “A (MIC of MEPM decreasing to less than 1/32 in combination with a test compound is indicated by A)”; the “Decrease … K. pneumoniae ATCC BAA-2344 (KPC)” value is on record as “A (MIC of MEPM decreasing to less than 1/32 in combination with a test compound is indicated by A)”; the “Decrease of MIC of MEPM … (OXA-48)” value is “A (MIC of MEPM decreasing to less than 1/32 in combination with a test compound is indicated by A)”.

`CON=C(C(=O)N1CC(Oc2ccc3c(c2C(=O)O)OB(O)CC3)C1)c1csc(N)n1` [Example 5, 7-({1-[(2-amino-1,3-thiazol-4-yl)(methoxyimino)acetyl]azetidin-3-yl}oxy)-2-hydroxy-3,4-dihydro-2H-1,2-benzoxaborinine-8-carboxylic acid]: the “Decrease of MIC … E. coli ATCC BAA-2340 (KPC)” value is given as “A (MIC of MEPM decreasing to less than 1/32 in combination with a test compound is indicated by A)”; the “Decrease … K. pneumoniae ATCC BAA-2344 (KPC)” value is reported as “B (decreasing from 1/32 to 1/16 is indicated by B)”; the “Decrease of MIC of MEPM … (OXA-48)” value was “C (decreasing from ⅛ to ¼ is indicated by C)”.

For the molecule `Cl.O=C(O)c1c(OC2CN(C(=O)c3ccccn3)C2)ccc2c1OB(O)CC2` [Example 6, 2-hydroxy-7-{[1-(pyridine-2-carbonyl)azetidin-3-yl]oxy}-3,4-dihydro-2H-1,2-benzoxaborinine-8-carboxylic acid hydrochloride], the “Decrease of MIC … E. coli ATCC BAA-2340 (KPC)” value is “A (MIC of MEPM decreasing to less than 1/32 in combination with a test compound is indicated by A)”; the “Decrease … K. pneumoniae ATCC BAA-2344 (KPC)” value is recorded as “A (MIC of MEPM decreasing to less than 1/32 in combination with a test compound is indicated by A)”; the “Decrease of MIC of MEPM … (OXA-48)” value is on record as “B (decreasing from 1/32 to 1/16 is indicated by B)”.

Take `CSCC(=O)N1CC(Oc2ccc3c(c2C(=O)O)O[B-](O)(O)CC3)C1` [Example 7, 4,4-dihydroxy-8-({1-[(methylsulfanyl)acetyl]azetidin-3-yl}oxy)-5-oxa-4-boranuidabicyclo[4.4.0]deca-l(6),7,9-triene-7-carboxylic acid disodium salt]: the “Decrease of MIC … E. coli ATCC BAA-2340 (KPC)” value is given as “A (MIC of MEPM decreasing to less than 1/32 in combination with a test compound is indicated by A)”; the “Decrease … K. pneumoniae ATCC BAA-2344 (KPC)” value was “A (MIC of MEPM decreasing to less than 1/32 in combination with a test compound is indicated by A)”; the “Decrease of MIC of MEPM … (OXA-48)” value is reported as “B (decreasing from 1/32 to 1/16 is indicated by B)”.

Consider `O=C(O)c1c(OC2CN(C(=O)c3nc[nH]n3)C2)ccc2c1O[B-](O)(O)CC2` [Example 8, 4,4-dihydroxy-8-{[1-(1H-1,2,4-triazole-3-carbonyl)azetidin-3-yl]oxy}-5-oxa-4-boranuidabicyclo[4.4.0]deca-l(6),7,9-triene-7-carboxylic acid disodium salt], for which the “Decrease of MIC … E. coli ATCC BAA-2340 (KPC)” value is on record as “A (MIC of MEPM decreasing to less than 1/32 in combination with a test compound is indicated by A)”; the “Decrease … K. pneumoniae ATCC BAA-2344 (KPC)” value is given as “A (MIC of MEPM decreasing to less than 1/32 in combination with a test compound is indicated by A)”; the “Decrease of MIC of MEPM … (OXA-48)” value is recorded as “B (decreasing from 1/32 to 1/16 is indicated by B)”.

For the molecule `O=C(O)c1c(OC2CN(C(=O)c3cccc[n+]3[O-])C2)ccc2c1O[B-](O)(O)CC2` [Example 9, 4,4-dihydroxy-8-{[1-(1-oxido-2-pyridinylcarbonyl)azetidin-3-yl]oxy}-5-oxa-4-boranuidabicyclo[4.4.0]deca-l(6),7,9-triene-7-carboxylic acid disodium salt], the “Decrease of MIC … E. coli ATCC BAA-2340 (KPC)” value is reported as “A (MIC of MEPM decreasing to less than 1/32 in combination with a test compound is indicated by A)”; the “Decrease … K. pneumoniae ATCC BAA-2344 (KPC)” value is reported as “A (MIC of MEPM decreasing to less than 1/32 in combination with a test compound is indicated by A)”; the “Decrease of MIC of MEPM … (OXA-48)” value is “A (MIC of MEPM decreasing to less than 1/32 in combination with a test compound is indicated by A)”.

Take `N[C@@H](C(=O)N1CC(Oc2ccc3c(c2C(=O)O)O[B-](O)(O)CC3)C1)c1ccccc1` [Example 10, 8-({1-[(2R)-2-amino-2-phenylacetyl]azetidin-3-yl}oxy)-4,4-dihydroxy-5-oxa-4-boranuidabicyclo[4.4.0]deca-l(6),7,9-triene-7-carboxylic acid disodium salt]: the “Decrease of MIC … E. coli ATCC BAA-2340 (KPC)” value was “A (MIC of MEPM decreasing to less than 1/32 in combination with a test compound is indicated by A)”; the “Decrease … K. pneumoniae ATCC BAA-2344 (KPC)” value is given as “A (MIC of MEPM decreasing to less than 1/32 in combination with a test compound is indicated by A)”; the “Decrease of MIC of MEPM … (OXA-48)” value is recorded as “B (decreasing from 1/32 to 1/16 is indicated by B)”.

Consider `O=C(O)c1c(OC2CN(C(=O)c3ccccc3)C2)ccc2c1O[B-](O)(O)CC2` [Example 11, 8-[(1-benzoylazetidin-3-yl)oxy]-4,4-dihydroxy-5-oxa-4-boranuidabicyclo[4.4.0]deca-l(6),7,9-triene-7-carboxylic acid disodium salt], for which the “Decrease of MIC … E. coli ATCC BAA-2340 (KPC)” value is reported as “A (MIC of MEPM decreasing to less than 1/32 in combination with a test compound is indicated by A)”; the “Decrease … K. pneumoniae ATCC BAA-2344 (KPC)” value is listed as “B (decreasing from 1/32 to 1/16 is indicated by B)”; the “Decrease of MIC of MEPM … (OXA-48)” value is listed as “B (decreasing from 1/32 to 1/16 is indicated by B)”.

For `O=C(O)c1c(OC2CN(C(=O)c3cccnc3)C2)ccc2c1O[B-](O)(O)CC2` [Example 12, 4,4-dihydroxy-8-{[1-(pyridine-3-carbonyl)azetidin-3-yl]oxy}-5-oxa-4-boranuidabicyclo[4.4.0]deca-l(6),7,9-triene-7-carboxylic acid disodium salt], the “Decrease of MIC … E. coli ATCC BAA-2340 (KPC)” value is on record as “A (MIC of MEPM decreasing to less than 1/32 in combination with a test compound is indicated by A)”; the “Decrease … K. pneumoniae ATCC BAA-2344 (KPC)” value is “A (MIC of MEPM decreasing to less than 1/32 in combination with a test compound is indicated by A)”; the “Decrease of MIC of MEPM … (OXA-48)” value is “B (decreasing from 1/32 to 1/16 is indicated by B)”.

With `O=C(O)c1c(OC2CN(C(=O)Cc3ccccn3)C2)ccc2c1O[B-](O)(O)CC2` [Example 13, 4,4-dihydroxy-8-({1-[(pyridin-2-yl)acetyl]azetidin-3-yl}oxy)-5-oxa-4-boranuidabicyclo[4.4.0]deca-l(6),7,9-triene-7-carboxylic acid disodium salt], the “Decrease of MIC … E. coli ATCC BAA-2340 (KPC)” value was “A (MIC of MEPM decreasing to less than 1/32 in combination with a test compound is indicated by A)”; the “Decrease … K. pneumoniae ATCC BAA-2344 (KPC)” value is listed as “A (MIC of MEPM decreasing to less than 1/32 in combination with a test compound is indicated by A)”; the “Decrease of MIC of MEPM … (OXA-48)” value is recorded as “B (decreasing from 1/32 to 1/16 is indicated by B)”.
